# According to patent US8680259B2, “Method and compositions for the identification of agents that have a potential effect against chronic inflammatory diseases” (Universität Leipzig, priority 2010, dated 2014):
# Experiments:
# primary CD14+ monocytes = assay: IL-1β production of monocytes stimulated with increased extracellular Ca2+ plus TLR ligand; format: cell-based, human
# Description: FIGS. 3c and 3d show IL-1β release of primary CD14^+ monocytes in response to increasing extracellular calcium concentration alone (c) or to increased [Ca^2+] in combination with LPS (100 ng/ml) (d) after 16 h of stimulation. The bar underneath the x axis represents the physiological range of the extracellular ionized Ca^2+ concentration (1.2 mM).
# The following TLR ligands (human TLR1-9 Agonist Kit, InvivoGen) were used at the following concentrations: TLR1/2 agonist—Pam3CSK4 (1 μg/ml), TLR2 agonist—heat-killed preparation of Listeria monocytogenes (10^8 cells/ml), TLR3 agonist—Poly(I:C) (10 μg/ml), TLR4 agonist—E. coli K12 LPS (100 ng/ml), TLR5 agonist—S. typhimurium flagellin (1 μg/ml), TLR6/2 agonist—FSL1 (1 μg/ml), TLR7 agonist—Imiquimod (1 μg/ml), TLR8 agonist—ssRNA40 (1 μg/ml) and TLR9 agonist—CpG ODN2006 (5 μM). […]
# In all experiments shown in FIGS. 3 and 4, IL-1β concentrations were determined in the supernatant by ELISA.
# Human and murine IL-1β were measured by commercially available enzyme-immunoassay following the manufacturer's protocol. […]
# LPS (Escherichia coli 0111:B4 ultrapure, 100 ng/ml, Invivogen) was used at a concentration of 100 ng/ml. […] Final Ca^2+ ion concentrations in the media were measured after anaerobic sampling (sealed blood gas syringes were completely filled under an CO2 atmosphere, and were closed with caps to avoid loss of CO2) on an ABL 730 (Radiometer). […]
# GPRC6A = GPRC6A (Mus musculus, UniProt Q8K4Z6); conditions: wild type mice; Aluminum Lactate 0.3 mg/100 ml with Carrageenan 1 g/100 ml vs Carrageenan alone; p<0.001
# GPRC6A, sequence (Q8K4Z6 21-928): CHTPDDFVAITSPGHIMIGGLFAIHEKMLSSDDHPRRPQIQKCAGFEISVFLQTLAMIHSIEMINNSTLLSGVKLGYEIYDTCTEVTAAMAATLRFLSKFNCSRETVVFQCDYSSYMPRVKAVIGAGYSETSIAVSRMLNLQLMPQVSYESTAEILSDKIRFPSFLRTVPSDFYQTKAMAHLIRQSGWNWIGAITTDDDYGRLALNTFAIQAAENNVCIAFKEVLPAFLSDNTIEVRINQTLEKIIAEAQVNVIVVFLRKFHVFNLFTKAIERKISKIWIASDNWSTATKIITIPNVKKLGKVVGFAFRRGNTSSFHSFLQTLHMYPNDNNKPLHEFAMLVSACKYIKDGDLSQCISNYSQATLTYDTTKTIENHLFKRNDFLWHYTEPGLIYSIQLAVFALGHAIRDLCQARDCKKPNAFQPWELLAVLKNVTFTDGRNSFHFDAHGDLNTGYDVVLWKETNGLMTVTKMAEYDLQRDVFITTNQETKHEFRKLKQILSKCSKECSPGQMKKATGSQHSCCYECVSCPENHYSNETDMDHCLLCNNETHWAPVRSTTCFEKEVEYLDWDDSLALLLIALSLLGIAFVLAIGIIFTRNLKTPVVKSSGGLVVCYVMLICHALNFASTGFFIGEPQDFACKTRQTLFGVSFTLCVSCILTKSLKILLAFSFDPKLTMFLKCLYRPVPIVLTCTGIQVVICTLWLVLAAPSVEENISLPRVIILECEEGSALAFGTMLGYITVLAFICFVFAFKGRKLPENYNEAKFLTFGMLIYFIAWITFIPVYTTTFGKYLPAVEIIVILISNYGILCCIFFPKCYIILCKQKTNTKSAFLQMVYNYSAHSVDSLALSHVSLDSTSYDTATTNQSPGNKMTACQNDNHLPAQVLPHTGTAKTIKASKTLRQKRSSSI
molecule,measurement,setting,value
"Tenascin: endogenous TLR ligand, extracellular matrix glycoprotein; Tenascin-C from Millipore",IL-1β production,primary CD14+ monocytes; endogenous TLR ligand in combination with increased extracellular Ca2+ concentrations,comparable to the Ca^2+ plus LPS induced levels
Aluminum Lactate,footpad swelling,GPRC6A,amplification of Carrageenan induced footpad swelling
"[Ca+2].[Cl-].[Cl-] [Ca^2+, CaCl2]","IL-1β production, factor of increase in comparison to endotoxin (LPS) alone",primary CD14+ monocytes; extracellular ionized Ca2+ in combination with LPS,20
